These results are taken from PubChem BioAssay (NCI).

Some test systems named below: PC-3 prostate; KM12 colon; ACHN renal; BT-549 breast; NCI-H226 lung; SNB-19 CNS; HCC-2998 colon; MOLT-4 leukemia; OVCAR-4 ovarian; COLO 205 colon; SNB-75 CNS; RPMI-8226 leukemia; SK-MEL-2 melanoma; LOX IMVI melanoma; SK-MEL-28 melanoma; HCT-15 colon; HS 578T breast; 786-0 renal; CAKI-1 renal; A498 renal.
What all share (assay): inhibition of tumour cell growth, NCI panel, 48 h

Each structure is given as a SMILES string.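 Cultured in 96-well plates, cells were exposed to test compound for 48 hours across five concentrations. The concentration for full growth arrest is given as TGI.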 Where a SMILES comes first, the peptide text is derived from it. The star is where a group is joined. Cbz = O=C(OCc1ccccc1)*

Turning to `O=C1CCCC1CN1CCCC1` (stereo not given), the TGI was 35.2 µM with PC-3 prostate; 35 µM in the test on KM12 colon; 15 µM in the test on ACHN renal; 3.09 µM in the test on BT-549 breast; above 100 µM with NCI-H226 lung; above 100 µM in the test on SNB-19 CNS. Also, the TGI with HCC-2998 colon was above 60.4 µM; with MOLT-4 leukemia, 1.07 µM; in the test with OVCAR-4 ovarian, 4.32 µM; in the test with COLO 205 colon, 8.74 µM; in the test on SNB-75 CNS, 31 µM; in the test on RPMI-8226 leukemia, 6.8 µM. Further, the TGI with SK-MEL-2 melanoma turned out to be 18.5 µM; in the test on LOX IMVI melanoma it was 24.4 µM; with SK-MEL-28 melanoma it was 27.7 µM; in the test on HCT-15 colon, 5.89 µM; in the test on HS 578T breast, 55.7 µM; in the test with 786-0 renal it was 14.9 µM. Moreover, the TGI in the test with CAKI-1 renal stood at 0.773 µM; in the test on A498 renal, 45.1 µM.

Consider `COC(=O)C1=C(O)C(C(=O)OC)[C@]2(O)[C@H](C(=O)OC)[C@H]1C[C@@H](c1ccc(C(F)(F)F)cc1)[C@H]2C(=O)OC` (stereo not given in full), for which the TGI in the test on PC-3 prostate was 94.6 µM; in the test with KM12 colon it was 53.3 µM; with ACHN renal, above 100 µM; with BT-549 breast, above 100 µM; in the test with NCI-H226 lung, 7.36 µM; in the test with SNB-19 CNS, 68.9 µM. Further, the TGI in the test on HCC-2998 colon is 14.7 µM; in the test on MOLT-4 leukemia, above 100 µM; in the test with OVCAR-4 ovarian it was above 100 µM; with COLO 205 colon, 11.5 µM; in the test on SNB-75 CNS, 26.7 µM; in the test with RPMI-8226 leukemia, above 100 µM. The TGI in the test on SK-MEL-2 melanoma was 15.1 µM; with LOX IMVI melanoma, 7.3 µM; with SK-MEL-28 melanoma, 35.4 µM; with HCT-15 colon, above 100 µM; in the test on HS 578T breast, above 100 µM; in the test with 786-0 renal, 23.4 µM. Moreover, the TGI in the test with CAKI-1 renal is above 100 µM; with A498 renal, 13.9 µM.

On to `CCOC(=O)C12OC(CCC1=O)C(C(=O)OC)=C2C(=O)OC` (stereo not given), for which the TGI with PC-3 prostate, in the test with KM12 colon, in the test on ACHN renal, in the test on BT-549 breast, in the test on NCI-H226 lung and in the test with SNB-19 CNS was above 10 µM in each case. The TGI with HCC-2998 colon, in the test on MOLT-4 leukemia, in the test with OVCAR-4 ovarian, in the test on COLO 205 colon, in the test on SNB-75 CNS and in the test with RPMI-8226 leukemia was above 10 µM throughout. Also, the TGI in the test with SK-MEL-2 melanoma, in the test on LOX IMVI melanoma, in the test with SK-MEL-28 melanoma, with HCT-15 colon, in the test on HS 578T breast and in the test on 786-0 renal was above 10 µM in each case. The TGI with CAKI-1 renal and in the test with A498 renal was above 10 µM each time.

Take `CN1CCN(C(=S)N2CCN(C)CC2)CC1`: the TGI with PC-3 prostate, in the test on KM12 colon, in the test on ACHN renal, in the test on BT-549 breast, with NCI-H226 lung and with SNB-19 CNS was above 100 µM in each case. In addition, the TGI was above 100 µM in the test on HCC-2998 colon; above 100 µM in the test on MOLT-4 leukemia; above 100 µM in the test on OVCAR-4 ovarian; 9.45 µM in the test with COLO 205 colon; above 26.3 µM in the test on SNB-75 CNS; above 76.7 µM in the test with RPMI-8226 leukemia. Besides, the TGI with SK-MEL-2 melanoma, in the test with LOX IMVI melanoma, in the test with SK-MEL-28 melanoma, in the test with HCT-15 colon, in the test on HS 578T breast and with 786-0 renal was above 100 µM each time. Besides, the TGI in the test on CAKI-1 renal and with A498 renal was above 100 µM each time.

On to `CN1C2CCC1CC(=CCOC(c1ccc(F)cc1)c1ccc(F)cc1)C2`, for which the TGI was determined as 33.1 µM with PC-3 prostate; 29.6 µM with KM12 colon; 31.8 µM in the test with ACHN renal; 30.1 µM in the test with BT-549 breast; 37.4 µM in the test on NCI-H226 lung; 37.8 µM with SNB-19 CNS. The TGI came to 13.3 µM in the test on HCC-2998 colon; 42.3 µM in the test on MOLT-4 leukemia; 31.9 µM in the test on OVCAR-4 ovarian; 30.5 µM in the test on COLO 205 colon; 27.1 µM in the test with SNB-75 CNS; 38 µM in the test with RPMI-8226 leukemia. For the same compound, the TGI in the test on SK-MEL-2 melanoma turned out to be 39.4 µM; with LOX IMVI melanoma, 31.5 µM; in the test with SK-MEL-28 melanoma it was 47.9 µM; in the test on HCT-15 colon, 29.6 µM; in the test with HS 578T breast, 27.5 µM; in the test with 786-0 renal, 27.9 µM. The TGI with CAKI-1 renal is 30.6 µM; in the test with A498 renal, 28.7 µM.

In the case of `CCCCCCc1cc2cc(C(=O)Nc3ccccc3)c(=N)oc2cc1O`, the TGI is above 30.3 µM with PC-3 prostate; 8.48 µM in the test on KM12 colon; above 100 µM with ACHN renal; above 100 µM with BT-549 breast; above 100 µM in the test with NCI-H226 lung; above 73.8 µM in the test on SNB-19 CNS. The TGI in the test on HCC-2998 colon was 20.8 µM; in the test with MOLT-4 leukemia, 8.79 µM; in the test with OVCAR-4 ovarian, above 60.9 µM; in the test on COLO 205 colon it was above 100 µM; in the test on SNB-75 CNS, above 100 µM; in the test with RPMI-8226 leukemia, above 100 µM. Moreover, the TGI with SK-MEL-2 melanoma was 14.7 µM; in the test with LOX IMVI melanoma, 12.5 µM; with SK-MEL-28 melanoma, above 100 µM; in the test on HCT-15 colon, above 100 µM; with HS 578T breast it was 20 µM; with 786-0 renal, above 35.8 µM. The TGI in the test on CAKI-1 renal and in the test on A498 renal was above 100 µM throughout.

For the compound `O=C(O)CCC(NC(=O)OCc1ccccc1)C(=O)NC(Cc1cnc[nH]1)C(=O)O` (stereo not drawn) (Cbz-Glu-His-OH; configuration not given here), the TGI with PC-3 prostate, in the test on KM12 colon, with ACHN renal, in the test on BT-549 breast, in the test with NCI-H226 lung and with SNB-19 CNS was above 100 µM in each case. Also, the TGI in the test with HCC-2998 colon, with MOLT-4 leukemia, in the test with OVCAR-4 ovarian, in the test on COLO 205 colon, in the test with SNB-75 CNS and in the test with RPMI-8226 leukemia was above 100 µM in each case. Further, the TGI in the test on SK-MEL-2 melanoma, in the test on LOX IMVI melanoma, in the test on SK-MEL-28 melanoma, in the test on HCT-15 colon, with HS 578T breast and in the test with 786-0 renal was above 100 µM each time. The TGI in the test with CAKI-1 renal and with A498 renal was above 100 µM throughout.
